The results in this text go back to patent publication US11401279B2, “Pyrido[3,2-d]pyrimidine compounds as immunomodulators” (Incyte Corporation, priority 2019, dated 2022).

One test has as its target PD-L1 (Homo sapiens (Human), UniProt Q9NZQ7). In words: PD-L1 whole blood internalization assay. The format is cell-based. The following applies: PD-L1 internalization in human whole blood, CD14+ cells, interferon γ, 24 hour. Here is the method:
To determine PD-L1 internalization in human whole blood, normal human blood (Biological Specialty Corp, Colmar. Pa.) was incubated in the presence or absence of a concentration range of test compounds and 1 ng/mL human interferon γ (R&D Systems Inc. Minn. […] Blood was then stained with PD-L1 (MIH1, eBioscience; or BD Biosciences San Jose, Calif.), CD14 (Life Technologies, Carlsbad, Calif.) for 30 minutes in the dark at room temperature. Whole Blood/red cells were lysed/fixed (lysis buffer BD Biosciences) for 5 minutes at 37° C. in the dark and then centrifuged at 1600 RPM for 5 minutes. Cells were resuspended in Stain Buffer (BD Bioscience, San Jose, Calif.) and transferred into 96 well round bottom plates (Corning). Cells were gated on CD14+(BD Biosciences) and PD-L1 expression determined by mean fluorescence intensity (MFI) (BD LSRFortessa™ X-20). IC50 determination was performed by fitting the curve of compound percent inhibition versus the log of the compound concentration using the GraphPad Prism 7.0 software.

Test [1] deals with U2OS/PD-L1 cells and Jurkat-PD-1-SHP cells. Kind of test: Src homology region 2 domain-containing phosphatase (SHP) assay. The format is cell-based. As to conditions: Homo sapiens, U2OS; PathHunter chemiluminescence, 2 hours. Here is the method: U2OS/PD-L1 cells (DiscoveRx Corporation) were maintained in McCoy's 5A medium with addition of 10% FBS, 0.25 μg/mL Puromycin. After removing the culture media, the cell medium was replaced with assay medium (RPMI1640 medium with 1% FBS). The U2OS/PD-L1 cells were then added in 384-well black clear bottom assay plate (CELLCOAT® Tissue Culture Plates, Greiner Bio-One) at 5000 cells per well in 20 μL assay medium. Test compounds were prepared by serial dilution in DMSO and 125 nL compound were first transferred to the 384 REMP plate well (Thermofisher) by ECHO liquid handler (Labcyte) followed with addition of 27.5 μL assay medium. 5 µL/well compounds in the assay medium were transferred to the cell plate with 0.05% DMSO in the final assay at 0.25 μM. Jurkat-PD-1-SHP cells (DiscoveRx Corporation) were cultured in RPMI1640 medium supplemented with 10% FBS, 250 μg/mL Hygromycin B, 500 μg/mL G418. After the replacement of culture media with assay medium, 5,000 Jurkat-PD-1-SHP cells in 20 μL were dispensed into each well. The assay plate was incubated at 37° C., 5% CO2 for 2 hours before 2.5 μL PathHunter reagent 1 (DiscoveRx Corporation) were added to each well. The assay plate was shaken for 1 min at 350 rpm in the dark followed with addition of 10 μL PathHunter reagent 2 (DiscoveRx Corporation). Chemiluminescent signal was recorded with TopCount reader (Perkin Elmer) after incubation at room temperature for 1 hour. Wells with DMSO were served as the positive controls and wells containing no cells were used as negative controls. IC50 determination was performed by fitting the curve of percentage of control activity versus the log of the compound concentration using the GraphPad Prism 6.0 software.

The target of another test is PD-1/PD-L1 (Homo sapiens (Human), UniProt Q9NZQ7). In words: Homogeneous Time-Resolved Fluorescence (HTRF) PD-1/PD-L1 binding assay. The following applies: recombinant human PD-1 and PD-L1. Here is the method:
The assays were conducted in a standard black 384-well polystyrene plate with a final volume of 20 μL. Inhibitors were first serially diluted in DMSO and then added to the plate wells before the addition of other reaction components. The final concentration of DMSO in the assay was 1%. The assays were carried out at 25° C. in the PBS buffer (pH 7.4) with 0.05% Tween-20 and 0.1% BSA. Recombinant human PD-L1 protein (19-238) with a His-tag at the C-terminus was purchased from AcroBiosystems (PD1-H5229). Recombinant human PD-1 protein (25-167) with Fc tag at the C-terminus was also purchased from AcroBiosystems (PD1-H5257). PD-L1 and PD-1 proteins were diluted in the assay buffer and 10 μL was added to the plate well. Plates were centrifuged and proteins were preincubated with inhibitors for 40 minutes. The incubation was followed by the addition of 10 μL of HTRF detection buffer supplemented with Europium cryptate-labeled anti-human IgG (PerkinElmer-AD0212) specific for Fc and anti-His antibody conjugated to SureLight®-Allophycocyanin (APC, PerkinElmer-AD0059H). After centrifugation, the plate was incubated at 25° C. for 60 min. before reading on a PHERAstar FS plate reader (665 nm/620 nm ratio). Final concentrations in the assay were—3 nM PD1, 10 nM PD-L1, 1 nM europium anti-human IgG and 20 nM anti-His-Allophycocyanin. IC50 determination was performed by fitting the curve of percent control activity versus the log of the inhibitor concentration using the GraphPad Prism 5.0 software.
Background: TR-FRET usually uses a lanthanide donor and a delayed reading to cut background.

Test [2] relates to PD-L1 aAPC/CHO-K1 cells and Jurkat-PD-1-NFAT effector cells. In words: Nuclear factor of activated T-cells (NFAT) assay. The format is cell-based. The following applies: Cricetulus griseus, CHO-K1; luminescence, 24 hours. Here is the method:
PD-L1 aAPC/CHO-Klcells (Promega) were maintained in F-12 medium with addition of 10% FBS, 200 μg/mL Hygromycin B, 250 μg/mL Geneticin (G418). Jurkat-PD-1-NFAT effector cells (Promega) were cultured in RPMI 1640 medium supplemented with 10% FBS, 100 μg/mL Hygromycin B, 500 μg/mL G418. The culture media of PD-L1 aAPC/CHO-K1 cells were first replaced with assay medium (RPMI1640 medium with 1% FBS). The PD-L1 aAPC/CHO-Klcells were then added in a white 384-well white clear bottom assay plate (CELLCOAT® Tissue Culture Plates, Greiner Bio-One) at 8000 per well in 10 μL assay medium. Test compounds were prepared by serial dilution in DMSO and 0.8 μL test compounds in DMSO were first transferred to the 384 REMP plate well (Thermofisher) by PlateMate Plus (Thermofisher) followed with addition of 50 μL plating medium. 5 μL compounds in the assay medium were transferred to the cells with 0.4% DMSO in the final assay at 2 μM. After removing the culture media, 10,000 Jurkat-PD-1-NFAT effector cells in 5 μL assay medium was dispensed into each well. The assay plate was incubated at 37° C., 5% CO2 for 24 hours. After the assay plate was equilibrated to room temp for 15 minutes, 20 μL/well of Bio-Glo™ reagent (Promega) were added. After 8 minutes incubation at room temperature, luminescence was read at with Pherastar microplate reader (BMG Labtech). The fold of induction (FOI) was calculated based on the ratio of luminescence normalized to the DMSO wells within each assay plate. The maximum percentage of induction was reported based on the ratio between the highest FOI of each compound and the maximum FOI of control compound within each assay plate. Wells with DMSO were served as the negative controls and wells containing control compound with the highest FOI were used as positive controls. EC50 determination was performed by fitting the curve of percent control activity versus the log of the compound concentration using the GraphPad Prism 6.0 software.

Molecules are shown by their SMILES.

PD-1/PD-L1, sequence (Q9NZQ7 19-238): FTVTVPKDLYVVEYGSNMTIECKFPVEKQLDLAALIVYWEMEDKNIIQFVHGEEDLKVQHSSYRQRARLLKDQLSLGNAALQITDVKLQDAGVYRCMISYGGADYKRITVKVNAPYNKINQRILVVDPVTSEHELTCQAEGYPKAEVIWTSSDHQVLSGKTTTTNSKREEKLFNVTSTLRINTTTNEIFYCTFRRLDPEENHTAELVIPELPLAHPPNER
PD-L1, sequence (Q9NZQ7 19-290): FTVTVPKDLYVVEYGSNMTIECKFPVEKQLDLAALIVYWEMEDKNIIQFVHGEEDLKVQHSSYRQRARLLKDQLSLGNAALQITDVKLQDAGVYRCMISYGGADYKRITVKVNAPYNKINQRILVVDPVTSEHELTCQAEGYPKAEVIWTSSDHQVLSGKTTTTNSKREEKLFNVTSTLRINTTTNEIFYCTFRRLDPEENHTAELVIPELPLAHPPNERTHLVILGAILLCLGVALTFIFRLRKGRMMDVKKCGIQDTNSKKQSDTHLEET

For the compound `Cc1c(Nc2nc(C(F)F)nc3cc(CN[C@@H]4CCC[C@@H]4O)cnc23)cccc1-c1cccc(NC(=O)c2nc3c(n2C)CCN(CCC24CCC(C(=O)O)(CC2)C4)C3)c1Cl` [Example 9, 4-(2-(2-((2-chloro-3′-((2-(difluoromethyl)-7-((((1R,2S)-2-hydroxycyclopentyl)amino)methyl)pyrido[3,2-d]pyrimidin-4-yl)amino)-2′-methyl-[1,1′-biphenyl]-3-yl)carbamoyl)-1-methyl-1,4,6,7-tetrahydro-5H-imidazo[4,5-c]pyridin-5-yl)ethyl)bicyclo[2.2.1]heptane-1-carboxylic Acid], the values for the IC50 (at PD-L1; in test [1]; at PD-1/PD-L1) were 6.4 nM, 4 nM and 1.7 nM, respectively. Besides, the EC50 in test [2] amounted to 3 nM.
The matching figures for `Cc1c(Nc2nc(C(F)F)nc3cc(CN4C[C@H](O)C[C@@H]4C)cnc23)cccc1-c1cccc(NC(=O)c2nc3c(n2C)CCN(CCC24CCC(C(=O)O)(CC2)C4)C3)c1Cl` [Example 10, 4-(2-(2-((2-chloro-3′-((2-(difluoromethyl)-7-(((2S,4R)-4-hydroxy-2-methylpyrrolidin-1-yl)methyl)pyrido[3,2-d]pyrimidin-4-yl)amino)-2′-methyl-[1,1′-biphenyl]-3-yl)carbamoyl)-1-methyl-1,4,6,7-tetrahydro-5H-imidazo[4,5-c]pyridin-5-yl)ethyl)bicyclo[2.2.1]heptane-1-carboxylic Acid]: 35 nM, 4 nM, 1.5 nM and 4 nM.
The matching figures for `Cc1c(Nc2nc(C(F)F)nc3cc(CN4C[C@H](O)C[C@H]4C)cnc23)cccc1-c1cccc(NC(=O)c2nc3c(n2C)CCN(CCC24CCC(C(=O)O)(CC2)C4)C3)c1Cl` [Example 11, 4-(2-(2-((2-chloro-3′-((2-(difluoromethyl)-7-(((2R,4R)-4-hydroxy-2-methylpyrrolidin-1-yl)methyl)pyrido[3,2-d]pyrimidin-4-yl)amino)-2′-methyl-[1,1′-biphenyl]-3-yl)carbamoyl)-1-methyl-1,4,6,7-tetrahydro-5H-imidazo[4,5-c]pyridin-5-yl)ethyl)bicyclo[2.2.1]heptane-1-carboxylic Acid]: 27 nM, 3 nM, 1.5 nM and 5 nM.
As to `Cc1c(Nc2nc(C(F)F)nc3cc(CN4C[C@@H](O)C[C@H]4C)cnc23)cccc1-c1cccc(NC(=O)c2nc3c(n2C)CCN(CCC24CCC(C(=O)O)(CC2)C4)C3)c1Cl` [Example 12, 4-(2-(2-((2-chloro-3′-((2-(difluoromethyl)-7-(((2R,4S)-4-hydroxy-2-methylpyrrolidin-1-yl)methyl)pyrido[3,2-d]pyrimidin-4-yl)amino)-2′-methyl-[1,1′-biphenyl]-3-yl)carbamoyl)-1-methyl-1,4,6,7-tetrahydro-5H-imidazo[4,5-c]pyridin-5-yl)ethyl)bicyclo[2.2.1]heptane-1-carboxylic Acid], the figures for the half-inhibitory concentration (IC50) (on PD-L1; in test [1]; on PD-1/PD-L1) were 30 nM, 3 nM and 1.5 nM, respectively. In addition, in test [2], the EC50 came to 41 nM.
As for `Cc1c(Nc2nc(C(F)F)nc3cc(CN4CC(O)C4)cnc23)cccc1-c1cccc(NC(=O)c2nc3c(n2C)CCN(CCC24CCC(C(=O)O)(CC2)C4)C3)c1Cl` [Example 13, 4-(2-(2-((2-chloro-3′-((2-(difluoromethyl)-7-((3-hydroxyazetidine-1-yl)methyl)pyrido[3,2-d]pyrimidin-4-yl)amino)-2′-methyl-[1,1′-biphenyl]-3-yl)carbamoyl)-1-methyl-1,4,6,7-tetrahydro-5H-imidazo[4,5-c]pyridin-5-yl)ethyl)bicyclo[2.2.1]heptane-1-carboxylic Acid], the half-maximal inhibitory concentration (IC50) was 24 nM on PD-L1, 3 nM in test [1] and 1.8 nM at PD-1/PD-L1. Moreover, the EC50 in test [2] came out at 3 nM.
On to `Cc1c(Nc2nc(C(F)F)nc3cc(CN4CC(C)(O)C4)cnc23)cccc1-c1cccc(NC(=O)c2nc3c(n2C)CCN(CCC24CCC(C(=O)O)(CC2)C4)C3)c1Cl` [Example 14, 4-(2-(2-((2-chloro-3′-((2-(difluoromethyl)-7-((3-hydroxy-3-methylazetidin-1-yl)methyl)pyrido[3,2-d]pyrimidin-4-yl)amino)-2′-methyl-[1,1′-biphenyl]-3-yl)carbamoyl)-1-methyl-1,4,6,7-tetrahydro-5H-imidazo[4,5-c]pyridin-5-yl)ethyl)bicyclo[2.2.1]heptane-1-carboxylic Acid], for which the results for the IC50 (against PD-L1; in test [1]; on PD-1/PD-L1) were 20 nM, 3 nM and 1.7 nM, respectively. In test [2], it took 3 nM to reach a half-maximal effect (EC50).
As to `Cc1c(NC(=O)c2nc3c(n2C)CCN(CCC24CCC(C(=O)O)(CC2)C4)C3)cccc1-c1cccc(Nc2nc(C(F)F)nc3cc(CN4CC[C@H](O)C4)cnc23)c1C` [Example 15, (S)-4-(2-(2-((3′-((2-(difluoromethyl)-7-((3-hydroxypyrrolidin-1-yl)methyl)pyrido[3,2-d]pyrimidin-4-yl)amino)-2,2′-dimethyl-[1,1′-biphenyl]-3-yl)carbamoyl)-1-methyl-1,4,6,7-tetrahydro-5H-imidazo[4,5-c]pyridin-5-yl)ethyl)bicyclo[2.2.1]heptane-1-carboxylic Acid], the IC50 on PD-L1 was found to be 57 nM; in test [1], 2.9 nM; at PD-1/PD-L1, 1.5 nM. This compound also displayed a 50% effective concentration (EC50) in test [2] of 9 nM.

What is called IC50 is the concentration needed to halve the response being measured. Usually EC50 stands for the concentration needed to bring the measured effect to its halfway point.
